Molecules are shown by their SMILES.

This test addresses T1, Bifunctional epoxide hydrolase 2 (Homo sapiens, UniProt P34913).
T1 sequence (P34913 whole entry): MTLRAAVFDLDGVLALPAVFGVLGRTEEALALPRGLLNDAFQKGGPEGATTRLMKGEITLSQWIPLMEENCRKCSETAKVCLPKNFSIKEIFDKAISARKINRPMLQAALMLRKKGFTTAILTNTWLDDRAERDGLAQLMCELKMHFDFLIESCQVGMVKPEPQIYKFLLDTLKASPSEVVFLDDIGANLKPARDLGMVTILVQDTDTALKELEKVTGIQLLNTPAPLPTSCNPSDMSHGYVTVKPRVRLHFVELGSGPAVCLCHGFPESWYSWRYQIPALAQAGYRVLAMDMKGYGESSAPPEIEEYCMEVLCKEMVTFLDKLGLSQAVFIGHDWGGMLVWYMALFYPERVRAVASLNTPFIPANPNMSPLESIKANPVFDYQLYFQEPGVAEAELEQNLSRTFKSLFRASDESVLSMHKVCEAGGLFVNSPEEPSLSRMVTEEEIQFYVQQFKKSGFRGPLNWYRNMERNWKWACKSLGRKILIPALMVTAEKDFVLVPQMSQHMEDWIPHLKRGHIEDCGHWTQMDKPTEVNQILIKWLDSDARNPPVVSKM
In words: Inhibition of soluble epoxide hydrolase by fluorescence assay.
The IC50 is the point on the concentration scale where inhibition reaches its midpoint. High values mean lower potency, low ones higher potency. Compound `O=C(CC1CCCCC1)Nc1cccc(OCCCN2CCOCC2)c1` had an IC50 of 28 nM.
For the compound `O=C(Nc1cccc(OCCCN2CCOCC2)c1)C12CC3CC(CC(C3)C1)C2`, the IC50 came to 88 nM.
In turn, `O=C(CC12CC3CC(CC(C3)C1)C2)Nc1cccc(OCCCN2CCOCC2)c1` returned an IC50 of 2.5 nM.
Regarding `O=C(Nc1cccc(OCCCN2CCOCC2)c1)C1CCCCC1`, 390 nM corresponded to half-maximal inhibition (IC50).
Compound `O=C(Nc1ccc(C(F)(F)F)cc1)Nc1cccc(OCCCN2CCOCC2)c1` showed an IC50 of 1.2 nM.
Turning to `O=C(Nc1ccc(OC(F)(F)F)cc1)Nc1cccc(OCCCN2CCOCC2)c1`, the midpoint of inhibition, the IC50, lay at 8.2 nM.
Regarding `O=C(Nc1cccc(OCCCN2CCOCC2)c1)NC12CC3CC(CC(C3)C1)C2`, 0.8 nM corresponded to half-maximal inhibition (IC50).
The value for `O=C(Nc1cccc(OCCCN2CCOCC2)c1)NC1CCCCC1` was 3.9 nM; that for `O=C(Cc1ccc(C(F)(F)F)cc1)Nc1cccc(OCCCN2CCOCC2)c1` was 55 nM.
`S=C(Nc1cccc(OCCCN2CCOCC2)c1)NC12CC3CC(CC(C3)C1)C2`: the IC50 worked out at 22 nM.
The value for `O=C(Nc1cccc(OCCCN2CCOCC2)c1)C(O)CCC12CC3CC(CC(C3)C1)C2` (centres undefined) was 530 nM.
The value for `O=C(Nc1cccc(OCCCN2CCOCC2)c1)C(=O)C12CC3CC(CC(C3)C1)C2` was greater than 2000 nM; that for `O=C(CCC12CC3CC(CC(C3)C1)C2)C(=O)Nc1cccc(OCCCN2CCOCC2)c1` was 48 nM; that for `O=S(=O)(Nc1cccc(OCCCN2CCOCC2)c1)NC12CC3CC(CC(C3)C1)C2` was 3600 nM.
Consider `O=C(Nc1cccc(OCCCN2CCOCC2)c1)C(O)C12CC3CC(CC(C3)C1)C2` (centres undefined), for which the IC50 was greater than 2000 nM.
On to `O=C(Nc1cccc(OCCCN2CCOCC2)c1)C(O)CC12CC3CC(CC(C3)C1)C2` (centres undefined), for which the IC50 is 23 nM.
`O=C(Nc1cccc(OCCCN2CCOCC2)c1)c1ccc(C(F)(F)F)cc1`: the IC50 worked out at 93 nM.
In turn, `O=C(CC12CC3CC(CC(C3)C1)C2)C(=O)Nc1ccc(OCc2ccccc2)cc1` showed an IC50 of 1110 nM.
The value for `O=C(CCC12CC3CC(CC(C3)C1)C2)C(=O)NCCc1ccc(OCc2ccccc2)cc1` was 685 nM; that for `O=C(NCCc1ccc(OCc2ccccc2)cc1)NCCC12CC3CC(CC(C3)C1)C2` was 15 nM.
As for `O=C(NCCc1ccc(OCc2ccccc2)cc1)C(O)CC12CC3CC(CC(C3)C1)C2` (centres undefined), the IC50 is 185 nM.
The value for `O=C(NCCc1ccc(OCc2ccccc2)cc1)C(O)CCC12CC3CC(CC(C3)C1)C2` (centres undefined) was 11 nM; that for `O=C(Nc1ccc(OCc2ccccc2)cc1)C(O)C12CC3CC(CC(C3)C1)C2` (centres undefined) was 310 nM.
In the case of `O=C(Nc1ccc(OCc2ccccc2)cc1)C(O)CC12CC3CC(CC(C3)C1)C2` (centres undefined), the midpoint of inhibition, the IC50, lay at 270 nM.
The compound `O=C(CC12CC3CC(CC(C3)C1)C2)C(=O)NCCc1ccc(OCc2ccccc2)cc1` registered an IC50 of 1540 nM.
The value for `O=C(Nc1ccc(OCc2ccccc2)cc1)C(=O)C12CC3CC(CC(C3)C1)C2` was 210 nM; that for `O=S(=O)(Nc1cccc(OCCCN2CCOCC2)c1)c1ccc(C(F)(F)F)cc1` was 15000 nM.
Take `O=C(CNC12CC3CC(CC(C3)C1)C2)Nc1cccc(OCCCN2CCOCC2)c1`: inhibition was half-maximal at 110 nM (IC50).
Compound `O=C(CC12CC3CC(CC(C3)C1)C2)C(=O)Nc1cccc(OCCCN2CCOCC2)c1` displayed an IC50 of 49 nM.

The values are drawn from ChEMBL document CHEMBL1152719, “Non-urea functionality as the primary pharmacophore in soluble epoxide hydrolase inhibitors” (Bioorg Med Chem Lett, 2009).
